In article PMC8026479 (Cancer Chemotherapy and Pharmacology, 2021):

Tested on: transition rate constant from G1 to cycling for HSPCs
Experiment: Semi-mechanistic multi-compartment PK/PD model of hematopoiesis
Parameters: species or system mouse, rat, and dog
From the text: Owing to the invasive nature of the PD marker collection (i.e. bone marrow aspiration), a semi-mechanistic PK/PD model based on animal PK/PD data and human PK data was developed to guide the selection of an optimal dose level for bone marrow aspiration in humans during dose escalation in the Phase I first-in-human study. The model was constructed using PK data from four species (mouse, rat, dog, and human) and PD data from three species (mouse, rat, and dog; Online Resources 1 and 2).
The PK/multi-compartment PD model was based on a myelosuppression model previously published by Friberg et al., with modifications. […] In the model used in the current study, stem cells and progenitor cells were separated into two compartments, with experimental data measured for each compartment. […] Another important deviation from the Friberg model was the mechanism postulated for the homeostasis of the […] (PMNs). We postulated that the feedback mechanism has a set point target and that deviations from that target would accelerate (in the case of too few PMNs) or decelerate (in the case of too many PMNs) the transition of G1-phase cells to S-phase cells in the stem cell population.
The model was constructed in two stages. First, preclinical PK data (e.g. doses, routes, and schedule of administration, observed concentrations) were compiled and modeled by allometric scaling. A sequential PK/PD modeling approach (population PK parameters and data approach) was then employed in which a semi-mechanistic PD model with various physiological compartments was created, and specific assumptions entered (Online Resource 3). Traditional forward addition/backward elimination was used for PK modeling. […] Many parameters in this complex model could not be estimated and were fixed either to the literature values or values selected on the basis of discussions with domain experts and sensitivity analysis. In preclinical animal models, the PD analysis modeled bone marrow cells positive for 5′-ethynyl-2′-deoxyuridine (EdU) and peripheral neutrophil counts simultaneously. […]

## CN1CCN(c2ccc(Nc3ncc4cc5n(c4n3)C3(CCCCC3)CNC5=O)nc2)CC1 [trilaciclib]
Plasma concentration, Emax effect on G1-to-cycling transition of HSPCs, model estimate
  EC50, final PD model (concentration of G1T28 with 50% max effect): 5.9 ng/mL
Predicted from model EC50
  EC90 (therapeutically active): approximately 50 ng/mL
